{
  "source": "patent US10517913B2",
  "about": "“Composition for prevention, alleviation, or treatment of peripheral neuropathy comprising Lithospermi Radix extract as an effective component” (priority 2015, dated 2019)",
  "key": {"[1]": {"tested_on": "PC-12 cells", "test": "Neurite outgrowth assay kit (NS225), qualitative analysis", "format": "cell-based", "conditions": "200 nM oxaliplatin, NGF 100 ng/ml, 48 hours", "description": "PC-12 was purchased from the ATCC (USA). The cells were cultured in a 100 mm cell culture dish coated with collagen type I in an incubator at 37° C., 5% CO2, using a DMEM basal medium supplemented with 5% non-heat inactivated fetal bovine serum (FBS), 10% heat inactivated horse serum (HS), 100 unit/ml penicillin, and 100 μg/ml streptomycin. The basal medium, sera, and other additives were purchased from the Thermo Fisher Scientific.\nThe neuroprotective effect of the Lithospermi Radix extract of the present invention was determined using a neurite outgrowth analysis kit (NS225, Millipore) with 1 μm pore-sized membrane.\nSpecifically, PC-12 was cultured according to [Materials and Methods 3-1] for 72 hours in a DMEM low serum-differentiation medium supplemented with 1% horse serum, 100 unit/ml penicillin, 100 μg/ml streptomycin, and 100 ng/ml nerve growth factor (NGF). The membrane with 1 μm pores was coated by immersing it in a 24-well plate containing a 10 μg/ml collagen solution in an amount of 400 μl/well for 2 hours at 37° C. The collagen-coated membrane was transferred to a well containing a 600 μl of differentiation medium, and then, the differentiated PC-12 cells for 72 hours were plated at 75,000 cells/100 μl/membrane. The cells were treated with 200 nM oxaliplatin to induce neurotoxicity. […]"}, "[2]": {"tested_on": "astrocytes and microglial cells in spinal cord of peripheral neuropathic animals induced by oxaliplatin", "test": "Immunohistological analysis of glial cells (GFAP, Iba-1) in lumbar spinal cord", "format": "in vivo, C57BL/6 mice", "conditions": "oxaliplatin 10 mg/kg; lumbar spinal cord dorsal horn", "description": "In the present invention, an animal model having peripheral neuropathy was induced by oxaliplatin. Eight-week old male C57BL/6 mice were purchased from the OrientBio. Following 1 week acclimation period in a cage in an animal test room, the base line (BL) of responses of experimental animals to 3 times of mechanical stimulations applied to the right hind footpad of the animal using von Frey filament hair. Then, the animals were divided into different groups (N=8 animals/group). Peripheral neuropathy was induced by injection of 5 mg/kg oxaliplatin through tail veins of animals (once a week, 2 times for 2 weeks, i.e., 10 mg/kg oxaliplatin in total). Oxaliplatin was purchased from the LC Laboratories.\nThe specimens were prepared to histologically determine the protective effect of the Lithospermi Radix extract (WLR) against neuronal damage in peripheral neuropathic animals induced by oxaliplatin. Specifically, the animal was anaesthetized by intraperitoneal injection of sodium pentobarbital (50 mg/kg), and then, blood was removed by perfusion of 0.9% physiological saline through the aorta via left ventricle. Following fixation by perfusion of 4% paraformaldehyde solution buffered with 0.1 M phosphate, the 4th to 6th lumbar spinal cords, dorsal root ganglia, and the hind footpad skins were removed. The tissues were further fixed in the same fixation solution as above. The paraffin-embedded tissues were sectioned at a 4 μm thickness. The slices were mounted on a glass slide, dried, and then, kept at room temperature until use.\nThe slice of spinal cord with 4 μm thickness was subjected to immunofluorescence staining using antibodies against GFAP and Iba-1 which are astrocyte and microglial cell markers, respectively. After removal of paraffin and hydration, the slice was immersed in citrate buffer solution (Vector Lab., USA) for 10 minutes in a microwave to recover antigenicity and increase reactivity. […]\nThe activity of the glial cells was expressed by the ratio (%) of the area of stained cells relative to the viewing area under a fluorescence microscope. The fluorescence microscopic images were analyzed compared to the control treatment using a software (Cellsense, Olympus).\nSpecifically, peripheral neuropathy was induced in male C57BL/6 mice by oxaliplatin (10 mg/kg) according to [Materials and Methods 4]. […] Using the obtained specimen, activation of astrocytes and microglial cells in dorsal horn areas of the lumbar spinal cord of the animals was measured by detecting GFAP and Iba-1 marker proteins, respectively, according to [Materials and Methods 6-2]. Distribution of intraepidermal nerve fiber (IENF) in the hind footpad skin was measured by detecting PGP9.5 marker protein according to [Materials and Methods 6-3]."}, "[3]": {"tested_on": "human lung cancer cells (A549)", "test": "Drug-herb interaction with oxaliplatin cytotoxicity (Ez-Cytox), A549", "format": "cell-based", "conditions": "oxaliplatin 0 to 100 μg/ml alone (No treat), 72 hours", "description": "(§1) A549 and HCT116 cells were purchased from the ATCC (USA). They were cultured in a 100 mm cell culture dish in an incubator at 37° C., 5% CO2, using an RPMI1640 basal medium supplemented with 10% heat inactivated FBS, 100 unit/ml penicillin, and 100 μg/ml streptomycin, and then used for in vitro tests. The basal medium, serum, and other additives were purchased from the Thermo Fisher Scientific.\n(§2) Specifically, human lung cancer cells (A549) and human colon cancer cells (HCT116) were cultured according to [Materials and Methods 3-3]. The cells were plated in a 96-well culture dish at 5,000 cells per well. After 24 hours, the cells were simultaneously treated with serially diluted oxaliplatin (0 to 100 μg/ml) and the Lithospermi Radix extract (0(PBS), 10, 30, 100 μg/ml) prepared according to [Materials and Methods 1]. The cell only treated with oxaliplatin was served as a negative control. After 72 hours, the cell viability (%) was measured using Ez-Cytox assay kit. The rate of cell death (% death) caused by oxaliplatin was expressed by (100−cell viability (%))."}, "[4]": {"tested_on": "human colon cancer cells (HCT116)", "test": "Drug-herb interaction with oxaliplatin cytotoxicity (Ez-Cytox), HCT116", "format": "cell-based", "conditions": "oxaliplatin 0 to 100 μg/ml alone (No treat), 72 hours", "description": "as §1, §2"}},
  "data": [
    {"smiles": "O=C1[O][Pt]2([NH][C@@H]3CCCC[C@H]3[NH]2)[O]C1=O", "note": "[oxaliplatin]", "values": [
      {"measurement": "Nerve growth factor-induced neurite growth", "setting": "[1]", "value": "inhibited"},
      {"measurement": "number of activated astrocytes (GFAP positive cells)", "setting": "[2]", "value": "increased"},
      {"measurement": "number of activated microglial cells (Iba-1 positive cells)", "setting": "[2]", "value": "increased"},
      {"measurement": "growth of cancer cells", "setting": "[3]", "value": "inhibited"},
      {"measurement": "growth of cancer cells", "setting": "[4]", "value": "inhibited"}
    ]}
  ]
}
